± gives the standard deviation of the averaged measurements.
Compound: CC(=O)N1CCc2c(c(N3CCCc4cc(-c5cnn(C)c5)c(C(F)F)cc43)nn2C2CCC(CN3CCN(c4ccc5c(c4)C(=O)N(C4CCC(=O)NC4=O)C5=O)CC3)CC2)C1 [CBPD-409]
Experiment: AUC of viability dose-response curve (relative to vehicle, 8 doses up to 10 µM) (fraction); higher = less sensitive (more viable); extreme values may be limits of the assay
Protocol: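 PRISM multiplexed pooled barcoded cell line viability screen at the Broad Institute, 887 cancer cell lines treated with CBPD-409 (p300/CBP PROTAC degrader) at 8 concentrations in threefold dilution, top dose 10 µM. The read-out is the area under the dose-response curve of relative viability versus vehicle (n=3). AUC < 0.3 is called strongly sensitive and AUC > 0.8 resistant.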

| Test System | AUC of viability dose-response curve |
| --- | --- |
| DMS53_LUNG | 0.475 |
| DMS273_LUNG | 0.976 |
| DND41_HAEMATOPOIETIC_AND_LYMPHOID_TISSUE | 0.567 |
| DOHH2_HAEMATOPOIETIC_AND_LYMPHOID_TISSUE | 0.468 |
| DOTC24510_CERVIX | 0.344 |
| DU145_PROSTATE | 0.946 |
| DU4475_BREAST | 0.831 |
| DV90_LUNG | 0.588 |
| EB1_HAEMATOPOIETIC_AND_LYMPHOID_TISSUE | 1 |
| EBC1_LUNG | 0.537 |
| ECC2_BILIARY_TRACT | 0.402 |
| ECGI10_OESOPHAGUS | 0.903 |
| EFE184_ENDOMETRIUM | 0.79 |
| EFM19_BREAST | 0.575 |
| EFM192A_BREAST | 0.645 |
| EFO21_OVARY | 0.764 |
| EFO27_OVARY | 1 |
| EGI1_BILIARY_TRACT | 0.872 |
| EKVX_LUNG | 1 |
| EM2_HAEMATOPOIETIC_AND_LYMPHOID_TISSUE | 0.613 |
| EMTOKA_ENDOMETRIUM | 0.825 |
| EOL1_HAEMATOPOIETIC_AND_LYMPHOID_TISSUE | 0.207 |
| ES2_OVARY | 0.986 |

| Test System | AUC of viability dose-response curve |
| --- | --- |
| ESS1_ENDOMETRIUM | 0.901 |
| EW8_BONE | 0.946 |
| EWS502_BONE | 0.749 ± 0.15 |
| FADU_UPPER_AERODIGESTIVE_TRACT | 0.844 |
| FLO1_OESOPHAGUS | 0.731 |
| FTC133_THYROID | 0.549 |
| FTC238_THYROID | 0.734 |
| G292CLONEA141B1_BONE | 0.585 ± 0.31 |
| G361_SKIN | 0.186 |
| G402_SOFT_TISSUE | 0.514 ± 0.18 |
| G415_BILIARY_TRACT | 0.902 |
| GAMG_CENTRAL_NERVOUS_SYSTEM | 0.77 |
| GB1_CENTRAL_NERVOUS_SYSTEM | 0.595 |
| GB2_BILIARY_TRACT | 0.826 |
| GCIY_STOMACH | 0.542 |
| GCT27_TESTIS | 0.696 |
| GCT_SOFT_TISSUE | 0.541 |
| GDM1_HAEMATOPOIETIC_AND_LYMPHOID_TISSUE | 0.877 |
| GI1_CENTRAL_NERVOUS_SYSTEM | 0.602 |
| GIMEN_AUTONOMIC_GANGLIA | 0.616 |
| GOS3_CENTRAL_NERVOUS_SYSTEM | 0.79 |
| GP2D_LARGE_INTESTINE | 0.847 |
| GP5D_LARGE_INTESTINE | 1 |

| Test System | AUC of viability dose-response curve |
| --- | --- |
| GSS_STOMACH | 0.349 |
| GSU_STOMACH | 0.326 |
| H4_CENTRAL_NERVOUS_SYSTEM | 0.625 |
| H103_UPPER_AERODIGESTIVE_TRACT | 0.997 |
| H157_UPPER_AERODIGESTIVE_TRACT | 0.993 |
| H357_UPPER_AERODIGESTIVE_TRACT | 0.815 |
| H376_UPPER_AERODIGESTIVE_TRACT | 0.862 |
| H413_UPPER_AERODIGESTIVE_TRACT | 0.842 |
| HA1E_KIDNEY | 0.542 |
| HAC2_OVARY | 1 |
| HARA_LUNG | 0.981 |
| HCA1_CERVIX | 0.811 |
| HCC15_LUNG | 1 |
| HCC38_BREAST | 0.323 |
| HCC44_LUNG | 1 |
| HCC56_LARGE_INTESTINE | 0.809 |
| HCC78_LUNG | 0.807 |
| HCC95_LUNG | 1 |
| HCC515_LUNG | 0.612 |
| HCC827_LUNG | 0.731 |
| HCC1143_BREAST | 0.623 |
| HCC1195_LUNG | 1 |
| HCC1359_LUNG | 1 |

| Test System | AUC of viability dose-response curve |
| --- | --- |
| HCC1395_BREAST | 0.783 |
| HCC1419_BREAST | 0.122 |
| HCC1428_BREAST | 0.667 |
| HCC1438_LUNG | 0.893 |
| HCC1806_BREAST | 1 |
| HCC1937_BREAST | 0.957 |
| HCC1954_BREAST | 1 |
| HCC2108_LUNG | 0.793 |
| HCC4006_LUNG | 1 |
| HCSC1_CERVIX | 0.357 |
| HCT15_LARGE_INTESTINE | 0.354 |
| HCT116_LARGE_INTESTINE | 0.998 |
| HDMB03_CENTRAL_NERVOUS_SYSTEM | 0.453 |
| HDQP1_BREAST | 0.853 |
| HEC1A_ENDOMETRIUM | 0.407 |
| HEC1B_ENDOMETRIUM | 0.998 |
| HEC1_ENDOMETRIUM | 1 |
| HEC6_ENDOMETRIUM | 0.645 |
| HEC50B_ENDOMETRIUM | 0.851 |
| HEC59_ENDOMETRIUM | 0.677 |
| HEC108_ENDOMETRIUM | 0.693 |
| HEC116_ENDOMETRIUM | 0.78 |
| HEC151_ENDOMETRIUM | 1 |

| Test System | AUC of viability dose-response curve |
| --- | --- |
| HEC251_ENDOMETRIUM | 0.841 |
| HEC265_ENDOMETRIUM | 0.695 |
| HEL9217_HAEMATOPOIETIC_AND_LYMPHOID_TISSUE | 0.229 |
| HEL_HAEMATOPOIETIC_AND_LYMPHOID_TISSUE | 0.267 |
| HEP3B217_LIVER | 0.4 |
| HEPG2_LIVER | 1 |
| HEYA8_OVARY | 1 |
| HGC27_STOMACH | 0.316 |
| HH_HAEMATOPOIETIC_AND_LYMPHOID_TISSUE | 1 |
| HKA1_SKIN | 1 |
| HKGZCC_BILIARY_TRACT | 1 |
| HL60_HAEMATOPOIETIC_AND_LYMPHOID_TISSUE | 0.516 |
| HLF_LIVER | 1 |
| HMC18_BREAST | 0.932 |
| HOS_BONE | 0.931 ± 0.027 |
| HOTHC_THYROID | 0.845 |
| HPAC_PANCREAS | 1 |
| HPAFII_PANCREAS | 0.919 |
| HPBALL_HAEMATOPOIETIC_AND_LYMPHOID_TISSUE | 0.878 |
| HS294T_SKIN | 0.929 |
| HS611T_HAEMATOPOIETIC_AND_LYMPHOID_TISSUE | 0.742 |
